SMILES strings stand for the structures. Like-named read-outs stand apart in the source and are kept apart here.

Consider nine molecules from patent publication US8003660B2, “Modulators of muscarinic receptors” (Vertex Pharmaceuticals Incorporated, priority 2006, dated 2011).

Common to all, as to type: cell-based
The target of one assay is T1, M4 muscarinic receptor (Homo sapiens, UniProt P08173).
T1 construct: expressed in transfected cells; host or cells: CHO (M4-CHO)
T1 sequence (P08173 1-479): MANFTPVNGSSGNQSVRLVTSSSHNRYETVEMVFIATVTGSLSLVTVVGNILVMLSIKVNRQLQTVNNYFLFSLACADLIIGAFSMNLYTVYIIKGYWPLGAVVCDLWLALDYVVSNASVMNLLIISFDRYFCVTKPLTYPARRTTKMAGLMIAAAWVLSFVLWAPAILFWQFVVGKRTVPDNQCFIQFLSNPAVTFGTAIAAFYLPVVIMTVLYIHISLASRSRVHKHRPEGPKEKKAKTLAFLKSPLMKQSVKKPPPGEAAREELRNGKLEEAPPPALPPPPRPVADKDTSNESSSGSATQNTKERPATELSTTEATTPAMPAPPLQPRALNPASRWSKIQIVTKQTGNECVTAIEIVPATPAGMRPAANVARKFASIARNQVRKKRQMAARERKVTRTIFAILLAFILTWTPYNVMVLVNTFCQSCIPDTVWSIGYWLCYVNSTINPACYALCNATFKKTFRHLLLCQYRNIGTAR
The assay can be described thus: Functional mobilization of intracellular calcium (FLIPR) in CHO cells expressing M4. The following applies: for EC50: CHO cells expressing M4, FLIPR calcium; for Emax: CHO; for M4 Activity: CHO cells expressing M4, FLIPR calcium assay. As for the experimental part: (§1) Functional Mobilization of Intracellular Calcium to Determine Muscarinic Receptor Activity:
(§2) CHO cells expressing muscarinic receptors (M1 to M5) are grown as monolayers in tissue culture flasks at 37° C. in a humidified atmosphere containing 5% CO2 and passaged every 3-5 days. The growth media is Dulbecco's modified eagles medium (DMEM, Gibco Cat# 12430-054), containing 25 mM Hepes and supplemented with Fetal Bovine Serum (Hyclone, cat# SH30071.03), 0.1 mM of MEM non-essential amino acids (GIBCO, Cat# 11140-050), 1 mM MEM Sodium Pyruvate (GIBCO Cat# 11360-070) and 100 units/ml of Penicillin G and 100 μg/ml of Streptomycin (GIBCO Cat# 15140-122). The recombinant muscarinic receptor cell lines are grown under antibiotic pressure with media containing 25 μg/ml zeocin and 500 μg/ml G418 (M1-CHO), 4 μg/ml puromycin, 50 μg/ml zeocin and 2.5 μg/ml blasticidin (M2 and M4-CHO) or 50 μg/ml zeocin and 4 μg/ml puromycin (M3 and M5-CHO).
(§3) Cells are harvested at 80-90% confluence using Versene (GIBCO Cat# 15040-066), collected by centrifugation and seeded 18-24 hrs prior to running the calcium assay at a density of 5,000-10,000 cells/well in […], clear-bottomed 384-well plates (BD Biocoat, poly-D-lysine, Cat#356663). The day of the experiment, the cells are washed with a plate washer (Bioteck Instruments, ELX 405) using bath 1 buffer (140 mM NaCl, 4,5 mM KCl, 2 mM CaCl2, 1 mM MgCl2, 10 mM Hepes-Na, 10 mM Glucose, pH 7.4, with NaOH) containing 1 mM Probenecid. Next, the calcium dye Fluo-3 (25 μl/well of Fluo-3 AM at 4 μM, Molecular Probes F-1241, in Bath 1 buffer containing 1 mM Probenecid) is added to the 25 μl of Bath 1 remaining in each well after the plate wash and the dye is loaded at 37° C. in the tissue culture incubator for 60-90 min. The fluorescent dye is removed using the plate washer with Bath 1 containing 1 mM Probenecid, leaving 25 μl/well of this solution after the wash. Alternatively, cells can be loaded with the calcium indicator from Molecular Devices (Calcium 3 Assay Reagents, Cat #R7181) adding 5 μl of a 5× solution dye in Bath 1 containing 1 mM Probenecid (10 ml per dye flask cat#R7182 to generate a solution […]) to 20 μl of the same buffer. After loading for 60 min, the experiment can be run without having to remove the dye.
(§4) Compounds are prepared at a 2× fold concentration in a 96-well plate (round bottom, Costar Corning cat#3656), by reconstituting the pre-spotted compounds in bath 1 containing 1 mM probenecid. The final concentration DMSO is 0.5%, and the amount of DMSO is normalized across the assay plate. To determine an agonist action of the compounds on muscarinic receptors, the reconstituted compounds are added (25 μl compound/well) to the cell assay plate (containing 25 μl/well) using the multi-channel robotic system of the FLIPR 3 Instrument (Molecular Devices, Sunnyvale, Calif.). To determine a functional inhibitory action of the compounds on muscarinic receptors, the reconstituted compounds are added (25 μl compound/well) to the assay plate and pre-incubated for 15 min prior to adding 25 μl of Carbachol at 3× the EC80 for each muscarinic subtype. Alternatively, the compounds can be co-applied simultaneously with the agonist. In both assay modes, the fluorescence is recorded for 60 sec (excitation wavelength is […] and emission wavelength 540 nm) using the FLIPR 3 instrument.
(§5) The potency, efficacy and selectivity of the muscarinic compounds were evaluated by screening the compound activity across the whole family (M1 to M5 cells). Compounds were also screened for activity on other proteins such as other GPCRs and ion channels to determine selectivity on M4 receptors.

A further assay deals with T2, M1 muscarinic receptor (Homo sapiens, UniProt P11229).
T2 construct: expressed in transfected cells; host or cells: CHO (M1-CHO)
T2 sequence (P11229 1-460): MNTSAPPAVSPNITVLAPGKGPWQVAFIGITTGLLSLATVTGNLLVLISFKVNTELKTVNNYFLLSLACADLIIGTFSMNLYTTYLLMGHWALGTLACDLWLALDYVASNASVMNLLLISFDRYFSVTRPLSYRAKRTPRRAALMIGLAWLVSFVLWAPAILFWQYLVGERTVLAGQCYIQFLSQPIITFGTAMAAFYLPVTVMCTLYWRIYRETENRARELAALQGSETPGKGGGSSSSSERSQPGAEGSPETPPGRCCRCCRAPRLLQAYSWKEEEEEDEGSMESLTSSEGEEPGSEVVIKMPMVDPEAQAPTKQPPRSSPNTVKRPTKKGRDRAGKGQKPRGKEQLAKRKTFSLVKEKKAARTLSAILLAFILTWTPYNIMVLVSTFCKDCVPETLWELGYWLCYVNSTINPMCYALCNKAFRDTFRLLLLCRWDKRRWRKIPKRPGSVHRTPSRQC
Put plainly: Functional mobilization of intracellular calcium (FLIPR) in CHO cells expressing M1. To be noted: for EC50: CHO cells expressing M1, FLIPR calcium; for Emax: CHO; for M1 Activity: CHO cells expressing M1, FLIPR calcium assay. As for the experimental part:
as §1, §2, §3, §4, §5

The next assay deals with T3, M2 muscarinic receptor (Homo sapiens, UniProt P08172).
T3 construct: expressed in transfected cells; host or cells: CHO (M2-CHO)
T3 sequence (P08172 1-466): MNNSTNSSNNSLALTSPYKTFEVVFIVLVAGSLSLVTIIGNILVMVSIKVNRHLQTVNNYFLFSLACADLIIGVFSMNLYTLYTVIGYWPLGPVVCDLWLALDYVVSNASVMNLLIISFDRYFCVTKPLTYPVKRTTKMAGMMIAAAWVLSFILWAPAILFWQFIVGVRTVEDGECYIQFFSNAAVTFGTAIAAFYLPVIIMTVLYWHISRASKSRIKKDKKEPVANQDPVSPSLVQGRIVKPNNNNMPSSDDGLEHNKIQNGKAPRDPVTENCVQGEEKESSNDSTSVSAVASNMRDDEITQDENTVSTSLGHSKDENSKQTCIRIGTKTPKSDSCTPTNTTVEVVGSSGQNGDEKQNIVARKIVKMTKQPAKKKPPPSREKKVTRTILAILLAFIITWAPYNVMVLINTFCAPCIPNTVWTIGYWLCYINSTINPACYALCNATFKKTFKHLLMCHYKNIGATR
Put plainly: Functional mobilization of intracellular calcium (FLIPR) in CHO cells expressing M2. To be noted: for EC50: CHO cells expressing M2, FLIPR calcium; for Emax: CHO; for M2 Activity: CHO cells expressing M2, FLIPR calcium assay. As for the experimental part: as §1, §2, §3, §4, §5

For the next assay, the target named is T4, M3 muscarinic receptor (Homo sapiens, UniProt P20309).
T4 construct: expressed in transfected cells; host or cells: CHO (M3-CHO)
T4 sequence (P20309 whole entry): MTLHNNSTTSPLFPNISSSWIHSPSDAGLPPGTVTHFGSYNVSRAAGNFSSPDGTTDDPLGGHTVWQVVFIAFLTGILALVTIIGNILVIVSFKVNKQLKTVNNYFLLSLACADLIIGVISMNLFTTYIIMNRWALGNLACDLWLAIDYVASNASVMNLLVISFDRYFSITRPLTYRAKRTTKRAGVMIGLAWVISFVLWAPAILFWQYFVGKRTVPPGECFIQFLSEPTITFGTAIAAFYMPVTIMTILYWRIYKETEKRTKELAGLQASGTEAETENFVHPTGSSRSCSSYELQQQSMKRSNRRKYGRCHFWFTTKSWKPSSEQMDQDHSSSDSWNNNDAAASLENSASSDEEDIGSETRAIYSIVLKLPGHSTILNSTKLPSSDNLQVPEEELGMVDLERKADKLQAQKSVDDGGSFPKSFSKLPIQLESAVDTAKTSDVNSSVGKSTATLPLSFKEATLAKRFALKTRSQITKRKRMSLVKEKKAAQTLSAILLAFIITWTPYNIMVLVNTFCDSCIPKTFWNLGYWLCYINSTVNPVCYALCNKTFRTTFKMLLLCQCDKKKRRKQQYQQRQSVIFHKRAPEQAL
Put plainly: Functional mobilization of intracellular calcium (FLIPR) in CHO cells expressing M3. To be noted: for EC50: CHO cells expressing M3, FLIPR calcium; for Emax: CHO. As for the experimental part:
as §1, §2, §3, §4, §5

[1] abbreviates: 100% = maximum response obtained with the Carbachol control, read-out: M4 Efficacy.
[2] abbreviates: 100% = maximum response obtained with the Carbachol control, read-out: M1 Efficacy.
[3] abbreviates: 100% = maximum response obtained with the Carbachol control, read-out: M2 Efficacy.
The mark [4] stands for this setting: 100% = maximum response obtained with the Carbachol control, read-out: M3 Efficacy.
The mark [5] stands for this setting: 100% efficacy = maximum response obtained with the Carbachol control.

Turning to `CCC(CC)N1CCC2(CC[C@H](NC(C)=O)c3ccccc32)CC1` [Compound No. 61, (S)N-(1′-(pentan-3-yl)-3,4-dihydro-2H-spiro[naphthalene-1,4′-piperidine]-4-yl)acetamide], the half-maximal effective concentration (EC50) on M4 muscarinic receptor, on M1 muscarinic receptor, at M2 muscarinic receptor and at M3 muscarinic receptor was > 5 µM each time. Also, the Emax on M4 muscarinic receptor (setting [1]) is 25 to 100%; at M1 muscarinic receptor (setting [2]), 25 to 100%; on M2 muscarinic receptor (setting [3]) it was < 25%; on M3 muscarinic receptor (setting [4]) it was < 25%.
Take `CC(=O)N[C@H]1CCC2(CCN(CC(=O)C(C)(C)C)CC2)c2ccccc21` [Compound No. 130, (S)-N-(1′-(3,3-dimethyl-2-oxobutyl)-3,4-dihydro-2H-spiro[naphthalene-1,4′-piperidine]-4-yl)acetamide]: the EC50 at M4 muscarinic receptor was < 2 µM; on M1 muscarinic receptor, 2 to 5 µM; on M2 muscarinic receptor, > 5 µM; at M3 muscarinic receptor, > 5 µM. The Emax at M4 muscarinic receptor (setting [1]) was 25 to 100%; on M1 muscarinic receptor (setting [2]), 25 to 100%; on M2 muscarinic receptor (setting [3]), < 25%; on M3 muscarinic receptor (setting [4]) it was < 25%.
Regarding `CC(=O)N[C@H]1CCC2(CCN(CCC(C)(C)C)CC2)c2ccccc21` [Compound No. 190, (S)-N-(1′-(3,3-dimethylbutyl)-3,4-dihydro-2H -spiro[naphthalene-1,4′-piperidine]-4-yl)acetamide], at M4 muscarinic receptor, the “M4 Activity” value is “+++ (activity was measured to be less than 2.0 μM)”. Further, the Emax on M4 muscarinic receptor (setting [5]) is 25 to 100%; at M1 muscarinic receptor (setting [5]) it was 25 to 100%; at M2 muscarinic receptor (setting [5]), 25 to 100%; on M3 muscarinic receptor (setting [5]), < 25%. In addition, the “M1 Activity” value at M1 muscarinic receptor is recorded as “+++ (activity was measured to be less than 2.0 μM)”. At M2 muscarinic receptor, the “M2 Activity” value is listed as “+++ (activity was measured to be less than 2.0 μM)”. For the same molecule, the “M3 Activity” value on M3 muscarinic receptor (CHO cells expressing M3, FLIPR calcium assay) is reported as “+ (activity was measured to be greater than 5.0 μM)”.
Regarding `CC(C)(C)CCN1CCC2(CC[C@H](NS(C)(=O)=O)c3ccccc32)CC1` [compound 1], the EC50 was < 2 µM at M4 muscarinic receptor, < 2 µM at M1 muscarinic receptor, 2 to 5 µM at M2 muscarinic receptor and > 5 µM at M3 muscarinic receptor. Besides, the Emax on M4 muscarinic receptor (setting [1]) is 25 to 100%; at M1 muscarinic receptor (setting [2]) it was 25 to 100%; on M2 muscarinic receptor (setting [3]) it was < 25%; at M3 muscarinic receptor (setting [4]) it was < 25%.
On to `Cc1cc(C(=O)N[C@H]2CCC3(CCN(CCC(C)(C)C)CC3)c3cc(F)ccc32)nn1C` [compound 2], for which the EC50 is < 2 µM at M4 muscarinic receptor, < 2 µM at M1 muscarinic receptor, < 2 µM at M2 muscarinic receptor and > 5 µM at M3 muscarinic receptor. Also, the Emax on M4 muscarinic receptor (setting [1]) was 25 to 100%; on M1 muscarinic receptor (setting [2]) it was 25 to 100%; at M2 muscarinic receptor (setting [3]), 25 to 100%; at M3 muscarinic receptor (setting [4]), < 25%.
For `CC(C)(C)CCN1CCC2(CC[C@@H](NC(=O)C3CC3)c3ccccc32)CC1` [compound 3], the EC50 was < 2 µM at M4 muscarinic receptor, > 5 µM at M1 muscarinic receptor, > 5 µM on M2 muscarinic receptor and > 5 µM on M3 muscarinic receptor. Besides, the Emax at M4 muscarinic receptor (setting [1]) was 25 to 100%; at M1 muscarinic receptor (setting [2]) it was < 25%; at M2 muscarinic receptor (setting [3]), < 25%; on M3 muscarinic receptor (setting [4]) it was < 25%.
Turning to `CCCCN1CCC2(CC[C@H](NC(C)=O)c3ccccc32)CC1` [compound 4], the concentration for a half-maximal effect (EC50) on M4 muscarinic receptor is 2 to 5 µM; at M1 muscarinic receptor, 2 to 5 µM; at M2 muscarinic receptor it was > 5 µM; on M3 muscarinic receptor, > 5 µM. Besides, the Emax was 25 to 100% at M4 muscarinic receptor (setting [1]), 25 to 100% at M1 muscarinic receptor (setting [2]), < 25% at M2 muscarinic receptor (setting [3]) and < 25% on M3 muscarinic receptor (setting [4]).
In the case of `CCC(=O)N1CCCCC1C(=O)N[C@@H]1CCC2(CCN(CCC(C)(C)C)CC2)c2ccccc21` (stereo partly shown) [compound 5], the EC50 on M4 muscarinic receptor is < 2 µM; at M1 muscarinic receptor, 2 to 5 µM; at M2 muscarinic receptor it was 2 to 5 µM; at M3 muscarinic receptor, > 5 µM. Further, the Emax on M4 muscarinic receptor (setting [1]) was 25 to 100%; on M1 muscarinic receptor (setting [2]) it was < 25%; on M2 muscarinic receptor (setting [3]) it was < 25%; at M3 muscarinic receptor (setting [4]), < 25%.
Regarding `C[C@H](N[C@H]1CC2(CCN(C(=O)OC(C)(C)C)CC2)c2ccccc21)c1ccccc1` [compound 275], the “M4 Activity” value on M4 muscarinic receptor is “+ (activity was measured to be greater than 5.0 μM)”. Also, the Emax on M4 muscarinic receptor (setting [5]), at M1 muscarinic receptor (setting [5]) and at M2 muscarinic receptor (setting [5]) was < 25% each time. Further, on M1 muscarinic receptor, the “M1 Activity” value was “+ (activity was measured to be greater than 5.0 μM)”. Besides, the “M2 Activity” value at M2 muscarinic receptor was “+ (activity was measured to be greater than 5.0 μM)”.
